Reference: patent US3937838A, “Orally active bronchospasmolytic compounds and their preparation” (priority 1966, dated 1976)
Entries after “also recorded” stand apart in the source; their conditions may differ. Where two headings read alike, the source gives them in different places.

How the values were obtained:
[1] = tested on: sphincter of Oddi (choledochoduodenal sphincter); assay: Effect on sphincter of Oddi (Example 5e); format: in vivo, cat
Procedure: The effect of terbutaline on the choledochoduodenal sphincter of young, healthy cats was studied. Young animals weighing at least 2.0 kg were used. After being deprived of food but not water for 24 hours, they were anesthetized with pentobarbitol (40 mg/kg i.p.). The terminal portion of a common bile duct was isolated and cannulated toward the duodenum. The hepatic part of the bile duct was drained to prevent distention. The pressure was continuously recorded by the open tip technique. Details of the experimental set up have been published by Liedberg and Halabi [Acta. Chir. Scand. 136 (1970) page 208.] Heart rate was recorded on all experiments and blood pressure by arterial cannulation in some.
Referring to the upper curve of FIGS. 7 and 8, the heart rate is continuously recorded. Concurrent records are made in the middle curve and lower curve of the pressures measured respectively in the common bile duct and in the lower duodenum.
As a control in this test, the animal was also treated with 0.5 international units per kg of cholecystokinin (CCK).
In a second test of the effect of terbutaline and isoprenaline on the sphincter (see FIG. 8), the duodenal motility was measured without being affected by CCK.

guinea pig trachea = assay: Bronchospasmolytic effect in vitro (Example 13); settings: based on ED50-values; weight basis; Table 7
Procedure: The trachea from a guinea pig was dissected out and spirally cut. It was mounted in a water-jacketed bath (37°C.) in Krebs solution and aerated with oxygen (95%) and carbon dioxide (5%). Pilocarpine (2 μg/ml) was added. The load was adjusted to about 2 g and relaxations in the trachea were recorded by means of a Grass force displacement transducer and a Grass polygraph model 5 (see Example 5 above). The cumulative method was used (-)-Epinephrine was used as reference. The comparisons presented in Table 7 are based on ED50 -values.

bronchial asthma = assay: Clinical study in asthmatic patients (Example 6); format: in vivo, human
Procedure: All the patients were hospitalized for severe bronchial asthma. Before the patients were selected for the trial, spirometry was performed before and after isoprenaline inhalations to make sure that their obstruction was at least partly reversible by bronchodilating drugs. The tests were performed when the patients were in a relatively steady state of moderate asthmatic discomfort. Every morning during the trial control measurements of forced expiratory volume in one second (FEV1.0) were made. These values had to be less than 70% of the predicted normal value taking in consideration sex, age and heights. All the patients were under treatment of different drugs for their asthma. Other bronchodilating drugs were withdrawn at least 6 hours before the start of the measurements. Most of the patients were treated with steroids, antibiotics and expectorants before the start of the trial. This regimen was continued unchanged during the trial period.
Twenty-four took part in the study, 10 male and 14 female. Average age was 51 years (range 15-71 years), mean body weight 64 kg (range 44-88 kg.) and height 166 cm (range 150-187 cm).
The trial was performed as a double blind study during three consecutive days with the patients serving as their own control. […] The order of treatment was randomized according to the principle of Latin squares.
Lung function tests were made immediately before the administration of the tablets and after 1, 2, 3, 5 and 7 hours. FEV1.0 was measured using a Vitalograph spirometer. The highest value of three measurements on each occasion was used in the calculations. All the patients had been trained to perform the tests the day before the start of the trial. After 3 and 7 hours, the patients were questioned for side effects. The same, specially trained, nurse assisted throughout the whole investigation.
The "Student's" t-test was used for statistical evaluation of the results. The degree of significance for the differences is given as almost significant (p<0.05^x) significant (p<0.01^xx) and highly significant (p<0.001^xxx).

[2] = Acute toxicity in mice (Example 9); settings: mouse, in vivo, mice (base)
[3] = tested on: spirally cut trachea from the guinea pig; assay: Dual preparation test in vitro, effect on trachea (Example 5c); settings: slow infusion; 0.375 μg/min where stated; FIGS. 2-4
Description: (§1) [This procedure is more fully described below in Example 5 (b)].
(§2) FIG. 2 illustrates the effect of epinephrine (EPE) and terbutaline on spirally cut trachea and right auricle from the guinea pig. Both preparations are dissected out from the same animal and run under identical experimental conditions;
(§3) Both preparations are dissected out from the same animal, and run under identical experimental conditions;
(§4) Both preparations are dissected out from the same animal and run under identical experimental conditions;
(§5) The relation between the heart stimulatory effect and bronchodilator effect was studied in vitro on auricle-trachea-preparation from the guinea pig in order to compare the effect on the heart and the effect on the bronchial muscle under identical experimental conditions. Both spontaneously bearing auricle and spirally-cut trachea were placed in the same bath in Krebs solution. Both preparations were taken from the same animal.
(§6) The compound to be tested was slowly infused into the bathing solution and the tension was measured for each of the auricle and trachael preparations.
(§7) In carrying out this dual preparation test, epinephrine was used as a reference. […] Infusion of epinephrine was made over a period of ten minutes. After washing and recovery, the test solution was infused in the same manner and the effect of the test compound was compared with the effect of epinephrine.

[4] = tested on: spirally cut trachea from the guinea pig; assay: Bronchospasmolytic effect in vitro (Example 5a), spirally cut trachea; settings: at ED50; pilocarpine contracted; racemic terbutaline
Procedure: Pharmacol. Exp. Ther. 90 (1947) page 104] and later modified by Constantine [J. Pharm. Pharmacol. 17 (1965) page 384]. In this test, guinea pigs are stunned with a blow on the head and bled to death. The trachea is dissected out, cut spirally and mounted in an organ bath (25 ml) in Krebs solution continuously aerated with oxygen (95%) and carbon dioxide (5%). […] The tension of the preparation is measured and is usually about 2 gm. initially. Dose response curves for epinephrine and each of the test compounds are then evaluated on the same muscle preparation.

[5] = tested on: right auricle from the guinea pig; assay: Dual preparation test in vitro, effect on auricle (Example 5c); settings: slow infusion, FIGS. 2-4
Description: as §1, §2, §3, §4, §5, §6, §7
Referring more specifically to FIG. 2, the upper portion of each chart thereof represents the tension continuously recorded of the auricle preparation (shaded area 1 for the effect of epinephrine on the auricle, ref. no. 2 for the effect of terbutaline infused at a rate of 0.2 μg/min on the auricle, and ref. no. 3 for the effect of terbutaline infused at a rate of 0.375μg/min on the auricle).

[6] = Toxicity study in mice (Example 18); format: in vivo; settings: mouse, in vivo, mice (NMRI, male), 24 hours, read-out: LD 50 + Standard error
Procedure: The toxicity was studied in mice (NMRI, male, 18-28 g) 24 hours after i.v. and oral administration. The animals were observed during five days. No further deaths occurred.

[7] = anesthetized cats, concurrent with sphincter effect

In the case of `CC(C)(C)NCC(O)c1cc(O)cc(O)c1` (racemic) [terbutaline, 1-(3',5'-dihydroxyphenyl)-2-(t-butylamino)-ethanol], the “number of cats responding (the other five of 25)” value ([1]; 5-10 μg/kg) is reported as “five”, the “duodenal pressure / motility” value [1, 7] is reported as “only slightly affects; also recorded: minimum effects” and the heart rate [1, 7] is reported as “only slightly affects the heart rate; also recorded: minimum effects on heart rate”. For the same compound, the “common bile duct pressure / sphincter relaxation” value ([1]; anesthetized cats, i.v., 1 μg/kg terbutaline in FIG. 7, FIG. 8) was “substantially reduces the common bile duct pressures; also recorded: relaxed the sphincter”, the “number of cats responding (of 25)” value ([1]; dose range 0.5-4.0 μg/kg) was 20 cats and the “bronchospasmolytic effect x (-)epinephrine” value (guinea pig trachea) was 0.8 ± 0.1. For the same compound, the “maximum effect and duration of effect versus orciprenaline” value (bronchial asthma; 5 mg terbutaline versus 20 mg orciprenaline, oral) was “superior to 20 mg of orciprenaline”, the circulatory effects (bronchial asthma; oral) was “negligible circulatory effects” and the “time of maximal response (FEV1.0)” value (bronchial asthma; oral single dose) was 3 h. For the same compound, the duration of action (bronchial asthma; oral, presumably) was over 5 h, the “increase of FEV1.0” value (bronchial asthma; oral, terbutaline 5.0 mg, orciprenaline 20 mg, FIG. 9) was “clearcut increase of the spirometric values; also recorded: significantly greater than that of orciprenaline; also recorded: effective in relaxing bronchial obstruction in asthmatic patients” and the LD50 ([2]; iv) was 47 mg/kg. The LD50 ([2]; sc) was 240 mg/kg, the LD50 ([2]; oral) was 3200 mg/kg and the “effect on trachea (relaxation)” value [3] was “nearly comparable to that of epinephrine infused at the same rate”. The “relaxation of trachea, activity relative to orciprenaline” value [4] was “about two”, the “relaxation of trachea, potency relative to (-)-epinephrine” value [4] was “slightly less potent than (-)-epinephrine” and the “cardiac stimulation in relation to bronchodilator effect” value ([5]; both preparations in same bath) was “bronchodilation was obtained without any effect on the heart muscle preparation”. For the same compound, the “effect on auricle (tension)” value ([5]; 0.375 μg/min where stated) was “little observable effect on the auricle”, the LD50 at 24 h ([6]; iv) was 52 ± 3 mg/kg and the LD50 at 24 h ([6]; po) was 3200 mg/kg.
